Here are results for ten compounds from patent publication US20150183791A1, “IMIDAZO[1,2-b]PYRIDAZINE-BASED COMPOUNDS, COMPOSITIONS COMPRISING THEM, AND METHODS OF THEIR USE” (LEXICON PHARMACEUTICALS, INC., priority 2013, published 2015).

The structures appear in SMILES notation. Some results are limits rather than exact numbers.

As a reminder, the IC50 is the midpoint of a concentration-inhibition curve. A higher IC50 goes with weaker potency in that assay.

Test [1] addresses AAK1 (full-length human protein) (Homo sapiens, UniProt Q2M2I8). Description: P81 filter plate assay. In kind it is biochemical. The procedure:
Compounds were serially diluted into a Labcyte LDV plate (Labcyte, cat# LP-0200) using a Mutiprobe (PerkinElmer) and Biomek FX (Beckman Coulter) so that the highest compound concentration was at 96 μM. Compounds were then pinged (75 nL per well) into a Greiner 384-well reaction plate (Greiner, #781076) using an ECHO 550 Liquid Handler (Labcyte). A total of 12 μl reaction buffer (IMAP buffer containing Tween and DTT, from Molecular Devices) was then added to each well of columns 1 and 13 for the negative controls and 12 μl of 2×AAK1 (0.2 nM full-length human protein, NCBI accession no. NP_055726.2) was added to the remaining wells. Enzyme was then pre-incubated with compound for 10 minutes at room temperature. Reactions were initiated upon Minitrak (PerkinElmer) addition of 12 μl substrate mix containing 2× Mu2 (0.2 μM, full length human protein), 2× cold ATP (2 μM), and 1.3 μCi of hot ^33P-ATP. Reactions proceeded for one hour at room temperature. Meanwhile, Millipore 384-well P81 filter plates (Millipore, catalog # MZPHN0 W10) were placed on a plate washer (Zoom ZW, from Titertek) and pre-wet with 50 μl 1% phosphoric acid. Kinase reactions were then stopped upon addition of 24 μl of 2% phosphoric acid to each well and the Minitrak was then used to transfer 40 μl from each well into the pre-wet Millipore 384-well P81 filter plates. Reaction mixtures were incubated for 10 minutes at room temperature in the P81 plates, followed by washing five times with 100 μl/well of 1% phosphoric acid using the Zoom filter washer. The bottom of each filter plate was sealed followed by addition of 20 μl Microscint 40 to each well, sealing the top of the plates with Flashplate cover, and then waiting one hour until reading on the TopCount (Perkin Elmer).

Test [2] has as its target T1, AAK1 (full length human) transfected with Flag/AP2MI in HEK293F cells; phospho-mu2 (Homo sapiens, UniProt Q2M2I8).
T1 construct: HA; expressed in transfected cells; host or cells: HEK293F
Description: HEK281 cell-based assay. The settings on record: HEK293F cells transfected with human AAK1 and AP2M1, 3 hours with compound, phospho-mu2 Western blot normalized to total Mu2. How it is done: HEK293F cells were cultured in media containing DMEM (Gibco, cat. #11965), 10% FBS (SAFC Biosciences, cat. #12103C), 1×GPS (glutamine, penicillin and streptomycin). On day one, cells were plated on a 10 cm dish so that they are ˜80% confluent at time of transfection. Roughly 12 million cells were in a 10 cm dish at time of transfection. On day two, each dish was transfected with 48 ug DNA and 144 ul Lipofectamine 2000 (Invitrogen, cat.#11668-019). The DNA was comprised of a mixture (per 10 cm dish) containing 3 ug AAK1/HA/pIRES (full length human, NCBI accession no. NP_055726.2), 45 μg Flag/AP2MI/pcDNA (full length human), and 1.5 ml OPTI-MEM. The Lipofectamine 2000 is made up of a mixture (per 10 cm dish) containing 144 μl Lipofectamine 2000 and 1.5 ml OPTI-MEM. Each mixture was transferred to individual 15 ml tubes and incubated at room temperature for 5 minutes, and then the two mixes were combined and incubated at room temperature for 20 minutes. Growth media was then aspirated from each 10 cm plate and replaced with 10 ml of DMEM+10% FBS (no GPS). Finally, 3 ml DNA/Lipofectamine mix was added to each 10 cm dish and mix gently followed by incubate of plate overnight at 37° C. and 5% CO2.
On day three, compounds were diluted in 100% DMSO at 1000× final concentration, followed by 3-fold serial dilutions for a total of 5 concentrations tested. Four compounds were tested per 10 cm dish. One ul of each compound dilution was then pipetted into a deep-well, 96-well plate, followed by addition of 500 μl DMEM+0.5% FBS into each well for a 2× final concentration of each compound. Cells were resuspended in a 10 cm dish by simple pipetting (HEK293 cells come off the plate that easy at this point) and then transferred to a 50 ml conical tube and pelleted by centrifugation at 1000 rpm for 5 min. Cell pellets were then resuspended in 2.75 ml DMEM+0.5% FBS per 10 cm dish and 100 μl of cell suspension transferred into each well of 96-well TC plate. Finally, 100 μl of 2× compound diluted in DMEM+0.5% FBS was then added into wells containing cell suspension for a 1× final concentration. Plates were then incubated at 37° C. and 5% CO2 for 3 hours followed by transferring of cell suspensions from each well into 12-tube PCR strips. The PCR strips were spun in a tip rack at 1000 rpm for 5 minutes to pellet cells and media was then removed by pipetting without disturbing the cell pellet.
To prepare for Western Blot analysis, cell pellets were resuspend in 40 ul 1×LDS-PAGE sample buffer (Invitrogen, cat.# NP0008) +2× Halt phophatase and protease inhibitor cocktail (Thermo Scientific, cat.#1861284), followed by sonicating each with microtip sonicator set at 5 for 8-10 seconds. Five ul of 10× NuPage Sample Reducing Agent (with […]) was to each sample followed by heat denaturing at 70 C for 10 min on PCR machine. A total of 10 μl per sample was loaded into each lane of a 4-20% Tris-Glycine Criterion 26-well gel (Biorad, cat.#345-0034) for the phospho-mu2 blot and 10 μl per lane in a 4-12% Bis-Tris (+MES buffer) NuPAGE 26-well gel (Invitrogen, cat.# WG1403BX10) for the mu2 blot. For controls, 2 ng of phospho-mu2 or 20 ng mu2/Flag proteins were loaded in the last well of each gel. After SDS-PAGE, samples on each gel were transferred to PVDF membrane using an iBlot and membranes were blocked for one hour in TBST+5% milk, followed by wash 3× for 5-10 min with TBST. Criterion gels were probed with rabbit anti-phospho-mu2 (1:5000; a rabbit polyclonal antibody produced by New England Peptide and affinity purified at Lexicon) in TBST+5% BSA, whereas, NuPAGE gels were probed with mouse anti-Flag (1:500; Sigma, cat.# F1804) in TBST+5% milk, and these primary antibodies were incubated overnight at 4° C. on a rocker. […]
Background: Immunoblotting shows a protein as a band on a membrane.

Where [3] appears, read: 0.2 nM-scale full-length human AAK1, Mu2 substrate, 33P-ATP, one hour at room temperature, class symbols.

T1 sequence (Q2M2I8 1-863 isoform Q2M2I8-2): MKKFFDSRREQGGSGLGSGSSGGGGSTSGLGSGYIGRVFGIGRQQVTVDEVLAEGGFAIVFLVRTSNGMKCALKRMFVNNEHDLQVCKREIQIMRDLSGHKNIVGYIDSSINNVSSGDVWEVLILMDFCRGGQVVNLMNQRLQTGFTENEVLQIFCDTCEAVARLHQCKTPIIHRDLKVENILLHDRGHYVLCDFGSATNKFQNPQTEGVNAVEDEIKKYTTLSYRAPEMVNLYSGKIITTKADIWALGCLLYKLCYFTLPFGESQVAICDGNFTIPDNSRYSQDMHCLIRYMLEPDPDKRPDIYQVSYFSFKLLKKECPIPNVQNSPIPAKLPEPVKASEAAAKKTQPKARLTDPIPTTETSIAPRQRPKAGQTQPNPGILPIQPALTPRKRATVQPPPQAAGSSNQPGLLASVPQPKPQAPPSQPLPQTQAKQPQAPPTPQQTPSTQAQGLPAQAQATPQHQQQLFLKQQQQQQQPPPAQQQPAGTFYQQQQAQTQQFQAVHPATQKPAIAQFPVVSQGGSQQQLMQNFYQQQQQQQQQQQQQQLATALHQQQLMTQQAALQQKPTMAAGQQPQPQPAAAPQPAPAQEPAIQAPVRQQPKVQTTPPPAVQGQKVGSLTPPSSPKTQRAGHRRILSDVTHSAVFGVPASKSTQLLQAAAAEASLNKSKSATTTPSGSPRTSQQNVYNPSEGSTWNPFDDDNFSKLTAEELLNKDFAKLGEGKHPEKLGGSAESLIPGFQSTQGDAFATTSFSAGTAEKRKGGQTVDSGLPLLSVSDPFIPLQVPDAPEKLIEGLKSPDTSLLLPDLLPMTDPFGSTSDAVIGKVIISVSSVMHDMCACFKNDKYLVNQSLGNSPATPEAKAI
Sequence of AAK1 (full-length human protein) (Q2M2I8 1-863 isoform Q2M2I8-2): as above

In test [1] (setting [3]), `CC(=O)c1cccc(-c2ccc3ncc(-c4ccc(CN)cc4)n3n2)c1` [1-(3-(3-(4-(Aminomethyl)phenyl)imidazo[1,2-b]pyridazin-6-yl)phenyl)ethanone] gave an IC50 of at most 10 nM. The “CBA IC50” value in test [2] is “** (“**” means a value of less than or equal to 0.1 μM)”.

Turning to `CC(C)CNC(=O)c1cccc(-c2ccc3ncc(-c4ccncc4)n3n2)c1` [N-isobutyl-3-(3-(pyridin-4-yl)imidazo[1,2-b]pyridazin-6-yl)benzamide], the IC50 in test [1] (same assay, given as numeric bound instead of class symbol) was above 300 nM. In addition, in test [2], the “CBA IC50” value was “* (“*” means less than or equal to 1.0 μM)”.

In the case of `CCCCCc1ccc2ncc(-c3ccc(C(C)=O)s3)n2n1` [1-(5-(6-Pentylimidazo[1,2-b]pyridazin-3-yl)thiophen-2-yl)ethanone], the “CBA IC50” value in test [2] is recorded as “* (“*” means less than or equal to 1.0 μM)”.

In the case of `CC(=O)c1cccc(-c2ccc3ncc(-c4ccc(C(N)=O)cc4)n3n2)c1` [4-(6-(3-Acetylphenyl)imidazo[1,2-b]pyridazin-3-yl)benzamide], the “CBA IC50” value in test [2] is given as “* (“*” means less than or equal to 1.0 μM)”.

In the case of `CC(=O)c1ccc(-c2cnc3ccc(-c4ccc(C#N)cc4)nn23)s1` [4-[3-(5-Acetyl-thiophen-2-yl)-imidazo[1,2-b]pyridazin-6-yl]-benzonitrile], the “CBA IC50” value in test [2] is “* (“*” means less than or equal to 1.0 μM)”.

In turn, `CNC(=O)c1ccc(-c2cnc3ccc(-c4cccc(C(=O)NCC(C)C)c4)nn23)cc1` [N-isobutyl-3-(3-(4-(methylcarbamoyl)phenyl)imidazo[1,2-b]pyridazin-6-yl)benzamide] registered an IC50 in test [1] (setting [3]) of at most 10 nM. In addition, the “CBA IC50” value in test [2] is on record as “* (“*” means less than or equal to 1.0 μM)”.

The compound `CC(C)CNC(=O)c1cccc(-c2ccc3ncc(-c4ccc(CN)cc4)n3n2)c1` [3-(3-(4-(Aminomethyl)phenyl)imidazo[1,2-b]pyridazin-6-yl)-N-isobutylbenzamide] gave an IC50 in test [1] (setting [3]) of at most 10 nM. In addition, in test [2], the “CBA IC50” value is recorded as “** (“**” means a value of less than or equal to 0.1 μM)”.

Take `CC(C)CNC(=O)c1cncc(-c2ccc3ncc(-c4ccc(CN)cc4)n3n2)c1` [5-(3-(4-(Aminomethyl)phenyl)imidazo[1,2-b]pyridazin-6-yl)-N-isobutylnicotinamide]: the IC50 in test [1] (setting [3]) is at most 10 nM. For the same compound, the “CBA IC50” value in test [2] was “** (“**” means a value of less than or equal to 0.1 μM)”.

`COc1cnccc1-c1cnc2ccc(-c3cccc(C(=O)NCC(C)C)c3)nn12` [N-isobutyl-3-(3-(3-methoxypyridin-4-yl)imidazo[1,2-b]pyridazin-6-yl)benzamide]: in test [1] (setting [3]), the IC50 is at most 10 nM. Further, in test [2], the “CBA IC50” value is “* (“*” means less than or equal to 1.0 μM)”.

On to `CC(C)CCC(=O)c1cccc(-c2ccc3ncc(-c4ccc(CN)cc4)n3n2)c1` [1-(3-(3-(4-(Aminomethyl)phenyl)imidazo[1,2-b]pyridazin-6-yl)phenyl)-4-methylpentan-1-one], for which, in test [1] (setting [3]), the 50% inhibitory concentration (IC50) is at most 10 nM. For the same compound, in test [2], the “CBA IC50” value is listed as “** (“**” means a value of less than or equal to 0.1 μM)”.
